Results: ChEMBL document CHEMBL1201862, “PubChem BioAssay data set” (2004)
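Assay format: 96-well plates, 48-hour exposure. At the GI50, growth is halved.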 Calls of active or inactive are those of the source. No stated cut-off is given here; in the data, active = GI50 up to about 1.1 µM and inactive = higher.

Legend:
Test in all cases: growth of human tumour cells (NCI), 48 h
NCI-H522 = tested on: NCI-H522
OVCAR-3 = tested on: OVCAR-3
RPMI-8226 = tested on: RPMI-8226
LOX IMVI = tested on: LOX IMVI
M14 = tested on: M14
CAKI-1 = tested on: CAKI-1
UO-31 = tested on: UO-31
TK-10 = tested on: TK-10
HCT-15 = tested on: HCT-15
SF-295 = tested on: SF-295
UACC-257 = tested on: UACC-257
MDA-N = tested on: MDA-N
KM12 = tested on: KM12
786-0 = tested on: 786-0
COLO 205 = tested on: COLO 205
DU-145 = tested on: DU-145
MDA-MB-435 = tested on: MDA-MB-435
SK-MEL-28 = tested on: SK-MEL-28
NCI-H226 = tested on: NCI-H226
OVCAR-8 = tested on: OVCAR-8

Measured: GI50

COc1ccc(/C=N/NC(=O)O)cc1
inactive: NCI-H522 > 100 µM | OVCAR-3 > 100 µM | RPMI-8226 > 100 µM | LOX IMVI > 100 µM | M14 > 100 µM | CAKI-1 > 100 µM | UO-31 > 100 µM | TK-10 > 100 µM | SF-295 > 100 µM | UACC-257 > 100 µM | MDA-N > 100 µM | KM12 > 100 µM | 786-0 > 100 µM | COLO 205 > 100 µM | DU-145 > 100 µM | MDA-MB-435 > 100 µM | SK-MEL-28 > 100 µM
> 100 µM: HCT-15

O=C(O)c1ccccc1/C=N\N=C1NCCCCN1
> 100 µM: HCT-15
inactive: NCI-H226 > 100 µM | OVCAR-8 > 100 µM | NCI-H522 > 100 µM | OVCAR-3 > 100 µM | RPMI-8226 > 100 µM | LOX IMVI > 100 µM | M14 > 100 µM | CAKI-1 > 100 µM | UO-31 > 100 µM | TK-10 > 100 µM | SF-295 > 100 µM | UACC-257 > 100 µM | MDA-N > 100 µM | KM12 > 100 µM | 786-0 > 100 µM | COLO 205 > 100 µM | DU-145 > 100 µM | MDA-MB-435 > 100 µM

CC#CC#C/C(=C/C=CC(=O)OC)SC
> 100 µM: HCT-15
inactive: NCI-H226 > 100 µM | OVCAR-8 > 100 µM | NCI-H522 > 100 µM | LOX IMVI > 100 µM | M14 > 100 µM | CAKI-1 > 100 µM | TK-10 > 100 µM | SF-295 > 100 µM | UACC-257 > 100 µM | MDA-N > 100 µM | KM12 > 100 µM | 786-0 > 100 µM | COLO 205 > 100 µM | DU-145 > 100 µM | MDA-MB-435 > 100 µM | SK-MEL-28 > 100 µM

CS(=O)(=O)OCC1CCCCCCCCCCC12SCCCS2 (stereo not drawn)
inactive: NCI-H226 > 100 µM | OVCAR-8 > 100 µM | NCI-H522 > 100 µM | OVCAR-3 > 100 µM | LOX IMVI > 100 µM | M14 > 100 µM | CAKI-1 > 100 µM | UO-31 > 100 µM | TK-10 > 100 µM | SF-295 > 100 µM | UACC-257 > 100 µM | MDA-N > 100 µM | KM12 > 100 µM | 786-0 > 100 µM | COLO 205 > 100 µM | DU-145 > 100 µM | MDA-MB-435 > 100 µM | SK-MEL-28 > 100 µM
> 100 µM: HCT-15

Nn1c(S)nnc1C12CC3CC(CC(C3)C1)C2
inactive: NCI-H226 > 100 µM | NCI-H522 > 100 µM | OVCAR-3 > 100 µM | RPMI-8226 > 100 µM | LOX IMVI > 100 µM | M14 > 100 µM | CAKI-1 > 100 µM | UO-31 > 100 µM | TK-10 > 100 µM | SF-295 > 100 µM | MDA-N > 100 µM | KM12 > 100 µM | 786-0 > 100 µM | COLO 205 > 100 µM | DU-145 > 100 µM | MDA-MB-435 > 100 µM | SK-MEL-28 > 100 µM
> 100 µM: HCT-15

Nc1n[nH]c(Nc2ccc(Cl)cc2)c1P(=O)(c1ccccc1)c1ccccc1
inactive: NCI-H226 24.3 µM | OVCAR-8 18.4 µM | NCI-H522 20.2 µM | OVCAR-3 18.1 µM | RPMI-8226 39.5 µM | LOX IMVI 31.6 µM | M14 21.3 µM | CAKI-1 44.8 µM | UO-31 29.4 µM | TK-10 30.1 µM | SF-295 18.6 µM | UACC-257 31.3 µM | MDA-N 11 µM | KM12 17.4 µM | COLO 205 49.4 µM | DU-145 37.7 µM | MDA-MB-435 19.1 µM | SK-MEL-28 25.7 µM
28.6 µM: HCT-15

Cc1c(-c2ccccc2)c(C#N)c2nnn(-c3cccc(Cl)c3)c(=O)n12
41.1 µM: HCT-15
inactive: NCI-H226 48.5 µM | OVCAR-8 53.5 µM | NCI-H522 47.8 µM | OVCAR-3 43 µM | RPMI-8226 42.5 µM | LOX IMVI 87.1 µM | CAKI-1 > 100 µM | TK-10 > 100 µM | SF-295 39.6 µM | UACC-257 > 100 µM | MDA-N > 100 µM | KM12 55.8 µM | 786-0 28.6 µM | COLO 205 44.4 µM | DU-145 68.9 µM | MDA-MB-435 > 100 µM | SK-MEL-28 > 100 µM
